The values that follow come from ChEMBL document CHEMBL1201862, “PubChem BioAssay data set” (2004).

Test systems include DLD-1; DMS-114; LXFL 529; M19-MEL; RXF 631; XF498; KM-20L2; HOP-18; SNB-78.
Common to all, as to test: NCI anticancer screen, dose series, 48 h

Structures are written as SMILES.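 Protocol summary: plate cells (96-well), add compound at 5 concentrations, incubate 48 h, interpolate endpoints linearly. At the GI50, growth is halved.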 Calls of active or inactive are those of the source. No stated cut-off is given here; in the data, active = GI50 up to about 1.1 µM and inactive = higher.

For the compound `COc1ccc(Cc2cc(OC)c(OC)c(OC)c2)cc1O`, the GI50 with DLD-1 is 0.207 µM (active); with DMS-114 it was 0.127 µM (active); in the assay on LXFL 529, 0.82 µM (active); in the assay with M19-MEL it was 0.0861 µM (active); in the assay with RXF 631 it was 25.2 µM (inactive); with XF498 it was 4.73 µM (inactive). Moreover, in the assay on KM-20L2, the GI50 is 51.6 µM (inactive).
Take `O=C1/C(=C/c2ccc(Cl)c(Cl)c2)CNC/C1=C\c1ccc(Cl)c(Cl)c1`: the GI50 was 33.7 µM (inactive) in the assay on HOP-18; 1.89 µM (inactive) in the assay on DLD-1; 3.97 µM (inactive) with LXFL 529; 22.3 µM (inactive) in the assay with M19-MEL; > 57.4 µM (inactive) with SNB-78; 36.3 µM (inactive) in the assay with RXF 631. Besides, the results for the GI50 with XF498 and in the assay with KM-20L2 were 19.5 µM (inactive) and 7.4 µM (inactive), respectively.
On to `CC1=C(C(=O)NCc2ccccc2)C(c2ccc(Cl)c(Cl)c2)C(C(=O)NCc2ccccc2)=C(C)N1`, for which the GI50 in the assay on DLD-1, with DMS-114, in the assay on LXFL 529, in the assay with M19-MEL, in the assay with SNB-78 and in the assay with XF498 was > 100 µM (inactive) throughout. Also, the GI50 in the assay with KM-20L2 was > 100 µM (inactive).
Regarding `Cc1cccc(C)c1NC(=O)CCC(=O)/N=C(\N)NC#N`, the GI50 with HOP-18, with DLD-1, in the assay with DMS-114, in the assay on LXFL 529, in the assay with M19-MEL and in the assay on RXF 631 was > 100 µM (inactive) throughout. For the same compound, the GI50 in the assay on XF498 and with KM-20L2 was > 100 µM (inactive) each time.
For `COc1cc2c(c(OC)c1OC)-c1ccc(OC)c(=O)cc1C(NC(=O)COc1ccccc1)CC2` (stereo not drawn), the GI50 in the assay with HOP-18 is > 100 µM (inactive); in the assay with DLD-1, < 0.01 µM (active); in the assay on DMS-114 it was < 0.01 µM (active); in the assay with LXFL 529, < 0.01 µM (active); with M19-MEL it was < 0.01 µM (active); in the assay with SNB-78, < 0.01 µM (active). The GI50 in the assay on RXF 631 was < 0.01 µM (active); in the assay on XF498, < 0.0625 µM (active); in the assay on KM-20L2, < 0.01 µM (active).
With `O=C1C2C(C(=O)N1c1ccccc1)C1([N+](=O)[O-])C=C3c4ccccc4N(C(=O)c4ccccc4)C32C2C(=O)N(c3ccccc3)C(=O)C21` (stereo not drawn), the GI50 in the assay on DLD-1, in the assay on DMS-114, in the assay with LXFL 529, with M19-MEL, in the assay on SNB-78 and in the assay with RXF 631 was > 100 µM (inactive) each time. In addition, the GI50 in the assay on XF498 was > 100 µM (inactive).
On to `CC1CCCC(C(O)CC2CC(=O)N(c3ccccc3)C(=O)C2)C1=O` (stereo not drawn), for which the GI50 in the assay on HOP-18, in the assay with DLD-1, in the assay on DMS-114, in the assay with LXFL 529, in the assay with M19-MEL and in the assay with SNB-78 was > 100 µM (inactive) throughout. Also, in the assay on KM-20L2, the GI50 is > 100 µM (inactive).
For the compound `C\C=C/C=C/C=C/C(=O)O`, the GI50 with HOP-18, with DLD-1, in the assay with DMS-114, with LXFL 529, in the assay with SNB-78 and with KM-20L2 was > 100 µM (inactive) each time.
Turning to `O=[N+]([O-])c1ccc(-n2nnc(C3=NCCN3)c2-c2ccccc2)cc1`, the GI50 in the assay with HOP-18, in the assay with DLD-1, with DMS-114, in the assay on LXFL 529, with M19-MEL and in the assay with SNB-78 was > 100 µM (inactive) each time. Besides, the GI50 in the assay with XF498 and with KM-20L2 was > 100 µM (inactive) each time.
`N#CC1=C(Cl)NC(Cl)=C(C#N)C1c1ccc(Cl)cc1`: the GI50 in the assay on HOP-18 is 17.6 µM (inactive); in the assay on DLD-1, 17.7 µM (inactive); in the assay with DMS-114 it was 15.2 µM (inactive); in the assay on LXFL 529, 16.4 µM (inactive); in the assay with SNB-78 it was 25.9 µM (inactive); in the assay with RXF 631, 13 µM (inactive). In addition, the GI50 in the assay with XF498 is 14.1 µM (inactive); with KM-20L2, 24.6 µM (inactive).
Take `COC(=O)c1c[nH]c2nc(N3CCOCC3)nn2c1=O`: the GI50 in the assay with DMS-114, in the assay on M19-MEL, with SNB-78 and in the assay with KM-20L2 was > 100 µM (inactive) in each case.
For `CC1=C(CC2C(=O)N(c3ccccc3)S(=O)(=O)NC2C)C(=O)N(c2ccccc2)S(=O)(=O)N1C` (stereo not drawn), the GI50 with DLD-1, in the assay with DMS-114, in the assay with LXFL 529, with M19-MEL, in the assay on SNB-78 and in the assay with RXF 631 was > 100 µM (inactive) in each case. In addition, the GI50 with XF498 and with KM-20L2 was > 100 µM (inactive) each time.
On to `CCOc1ccccc1NC(=O)C1=C(C)NC(C)=C(C(=O)Nc2ccccc2OCC)C1c1cccc([N+](=O)[O-])c1`, for which the GI50 with DLD-1 is 46.8 µM (inactive); in the assay with DMS-114, 46.3 µM (inactive); with LXFL 529 it was 24 µM (inactive); in the assay on M19-MEL it was > 100 µM (inactive); in the assay with SNB-78, 23.5 µM (inactive); in the assay with XF498, 17.7 µM (inactive). Besides, in the assay with KM-20L2, the GI50 is 89.1 µM (inactive).
On to `CC(=O)CC(=O)N(CCN(C(=O)CC(C)=O)c1ccccc1)c1ccccc1`, for which the GI50 in the assay on HOP-18, in the assay on DLD-1, in the assay with DMS-114, in the assay with LXFL 529, with M19-MEL and in the assay with SNB-78 was > 100 µM (inactive) in each case. In addition, the GI50 in the assay with XF498 and in the assay on KM-20L2 was > 100 µM (inactive) each time.
For `CC1(O)CC2C(CC1SC1CC3C(CC1(C)O)C3(C)C)C2(C)C` (stereo not drawn), the GI50 is 35.2 µM (inactive) in the assay on HOP-18; 74.8 µM (inactive) with DLD-1; 48.5 µM (inactive) in the assay with DMS-114; 52.2 µM (inactive) in the assay on LXFL 529; 24.9 µM (inactive) with M19-MEL; 73.3 µM (inactive) in the assay on SNB-78. In addition, the GI50 with XF498 is 35.1 µM (inactive).
Take `CC(C)N(C(=O)C12C3C4C1C1C2C3C41I)C(C)C` (stereo not drawn): the GI50 in the assay on DMS-114, in the assay on LXFL 529, in the assay on M19-MEL, with SNB-78, in the assay with RXF 631 and in the assay on XF498 was > 100 µM (inactive) in each case.
For `Fc1cccc(/C=N/C23CC4CC(CC(C4)C2)C3)c1`, the GI50 with HOP-18, in the assay on DLD-1, with DMS-114, with LXFL 529, in the assay on M19-MEL and with SNB-78 was > 100 µM (inactive) in each case. Also, the GI50 in the assay with XF498 and with KM-20L2 was > 100 µM (inactive) throughout.
`COC(=O)C1=C(O)c2cc3c(cc2[C@H](c2cc(OC)c(OC)c(OC)c2)C1)OCO3`: the GI50 is > 100 µM (inactive) with HOP-18; 34.6 µM (inactive) with DLD-1; 41.2 µM (inactive) in the assay with DMS-114; 37.8 µM (inactive) in the assay with LXFL 529; 0.478 µM (active) with M19-MEL; 87.1 µM (inactive) in the assay with SNB-78. The GI50 with RXF 631 was 54.7 µM (inactive); in the assay on XF498 it was 25.9 µM (inactive); with KM-20L2 it was 25.3 µM (inactive).
With `Clc1ccc(OCc2nnc3n2N=C(c2ccccc2)CS3)cc1`, the GI50 in the assay with DLD-1 was 16.5 µM (inactive); with LXFL 529 it was 13.6 µM (inactive); in the assay on M19-MEL, 16.9 µM (inactive); in the assay on RXF 631 it was 14 µM (inactive); with XF498, 17.1 µM (inactive); with KM-20L2, 15.2 µM (inactive).
As to `COC(=O)[C@@]12C(=O)C=CC(=O)[C@@H]1C1C(=CC2COC(C)=O)O[C@@H]2OC3(CCCCC3)O[C@H]12` (stereo partly drawn), the GI50 is 10.3 µM (inactive) in the assay on HOP-18; 9.68 µM (inactive) in the assay with DLD-1; 4.92 µM (inactive) in the assay on DMS-114; 4.28 µM (inactive) with LXFL 529; 15.5 µM (inactive) in the assay with M19-MEL; 21.5 µM (inactive) with SNB-78. Moreover, the GI50 was 21.9 µM (inactive) with RXF 631, 13.2 µM (inactive) in the assay on XF498 and 15.2 µM (inactive) with KM-20L2.
With `CCN(c1n[n+]2c(-c3ccccc3)csc2s1)c1n[n+]2c(-c3ccccc3)csc2s1`, the GI50 was > 100 µM (inactive) in the assay with HOP-18; > 100 µM (inactive) with DLD-1; 25.9 µM (inactive) with DMS-114; 50.9 µM (inactive) in the assay on LXFL 529; 33.3 µM (inactive) with M19-MEL; > 100 µM (inactive) in the assay on SNB-78. The values for the GI50 in the assay on XF498 and with KM-20L2 were 70.6 µM (inactive) and 72.8 µM (inactive), respectively.
Turning to `Cc1c(C(=O)/C=C/c2ccccc2)[n+]([O-])c2ccccc2[n+]1[O-]`, the GI50 with HOP-18 was 18.7 µM (inactive); with DLD-1 it was 14.2 µM (inactive); with DMS-114 it was 10.2 µM (inactive); with LXFL 529 it was 13 µM (inactive); in the assay with M19-MEL, 15.7 µM (inactive); in the assay on SNB-78, 34.3 µM (inactive). Moreover, the figures for the GI50 with XF498 and in the assay on KM-20L2 were 11.9 µM (inactive) and 18 µM (inactive), respectively.
